In the supplement of paper PMC5412046:
Where a name gives a salt, the structure may show the parent alone.

How the values were obtained:
[1] = system: SB.mhdgc-1; assay: AC50 for growth inhibition (viability) (log10 M); higher = less potent; conditions: SB.mhdgc-1 (hereditary c.1380delA CDH1 gastric cancer)
Method in brief: (§1)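 Dosing used a pintool to add 23 nL compound in DMSO to 1536 wells, each with 500 hereditary or sporadic patient-derived gastric cancer cells, across 11 threefold dilutions starting at a final 46 μM. Viability after 48 h was measured by CellTiter-Glo luminescence on a ViewLux. The log half-maximal activity concentration derives from a four-parameter fit of that viability normalised to DMSO, limited to high-quality curve classes.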

[2] = system: SB.msgc-1; assay: as above; conditions: SB.msgc-1 (sporadic gastric cancer)
Method in brief: as §1

Structure (SMILES) | AC50 for growth inhibition (log10 M) [1] | AC50 for growth inhibition (log10 M) [2]
C[C@@]12O[C@@H](C[C@]1(O)CO)n1c3ccccc3c3c4c(c5c6ccccc6n2c5c31)CNC4=O [Lestaurtinib] | -6.33 | -5.48
COc1ccc(Nc2cc(-c3cnc(N)nc3)nc(N3CCOCC3)n2)cn1 [NIBR-17] | -6.48 | -5.18
CC(O)(C#Cc1ccc2c(c1)N(c1nc(N)ncc1Cl)CC2)c1nccs1 (configuration not stated) | -4.73 | -4.88
CN(C)[C@@H](CCOc1cccc2ccccc12)c1ccccc1 [Dapoxetine hydrochloride] | -5.48 | -4.73
COc1cc(O)c2c(c1)C1OC1C[C@H](O)[C@H](O)C(=O)/C=C\C[C@H](C)OC2=O (some centres not stated) [Hypothemycin] | -5.03 | -4.83
C=CC(=O)Nc1ccc2ncnc(Nc3ccc(OCc4cccc(F)c4)c(Cl)c3)c2c1 [AST-1306] | -5.28 | -8.33
COc1ccc([C@@H]2CNC(=O)C2)cc1OC1CCCC1 [S-(+)-Rolipram] | -5.58 | -5.58
CC12CC3CC(C)(C1)CC(N)(C3)C2 [Memantine hydrochloride] | -4.73 | -4.83
Nc1cc(C(F)(F)F)c(-c2cc(N3CCOCC3)nc(N3CCOCC3)n2)cn1 [BKM-120] | -6.78 | -6.18
CC1(C)C(N(O)C(=O)Nc2ccc(Cl)cc2)N(c2ccc(Cl)cc2)C(=O)N1CC(=O)N/N=C/C=C/c1ccc([N+](=O)[O-])o1 (configuration not stated) [Eeyarestatin I] | -5.08 | -5.03
COc1cc2nccc(Oc3ccc(NC(=O)NC4CC4)c(Cl)c3)c2cc1C(N)=O [Lenvatinib] | -6.38 | -5.48
CC(C)(C(=O)NCC(F)(F)C(F)(F)F)C(=O)N[C@@H]1C(=O)Nc2ccccc2-c2ccccc21 | -4.83 | -5.23
COc1ccc([S+](=O)([O-])Nc2cccnc2Nc2ccc(O)cc2)cc1 [E-7010] | -5.83 | -6.93
Cc1cc(Nc2cc(N3CCN(C)CC3)nc(/C=C/c3ccccc3)n2)n[nH]1 | -4.32 | -4.27
CN1CCN(CC1)C2=CC3=C([NH]C(=N3)C/4=C(\N)C5=C(F)C=CC=C5NC4=O)C=C2 [Dovitinib] | -4.78 | -4.73
c1ccc2c(Cc3c[nH]c4ccccc34)c[nH]c2c1 [Diindolylmethane] | -6.13 | -5.63
CC(=O)C\1=C(/C)C2=CN=C(NC3=CC=C(C=N3)N4CCNCC4)N=C2N(C5CCCC5)C1=O | -4.93 | -4.73
CC1(C)OC/2=C(\[C@H](NCC3=CC=CC=C3)[C@@H]1O)C(=O)C4=CC=CC=C4C2=O | -5.43 | -5.58
CNC(=O)c1cccc(-c2ccc3c(N4CCOC[C@@H]4C)nc(N4CCOC[C@@H]4C)nc3n2)c1 [AZD-2014] | -7.33 | -7.03
OC1=CC=C(C=C1)\C2=C\C(=O)C3=C(O2)C=C(O)C=C3O [Apigenin] | -5.08 | -4.83
Cn1cc(-c2ccc3nnc(Sc4ccc5ncccc5c4)n3n2)cn1 [SGX-523] | -5.13 | -4.78
Nc1n[nH]c2nnc(-c3c(-c4ccccc4)nn4ccccc34)cc12 | -5.03 | -5.23
CCn1nnc2c(N3CCOCC3)nc(-c3ccc(NC(=O)Nc4ccc(C(=O)N5CCN(C)CC5)cc4)cc3)nc21 [PKI-402] | -5.43 | -5.88
C[N]1C=NC=C1[C@@](N)(C2=CC=C(Cl)C=C2)C3=CC=C4N(C)C(=O)\C=C(\C5=CC=CC(=C5)Cl)C4=C3 [Tipifarnib] | -4.83 | -4.83
NCC/1=C/NC(=S)N1[C@H]2CCC3=C(F)C=C(F)C=C3C2 [Nepicastat hydrochloride] | -4.98 | -5.03
COc1ccc(F)c(F)c1C(=O)c1cnc(NC2CCN([S+](C)(=O)[O-])CC2)nc1N [R-547] | -5.73 | -6.03

Structure (SMILES) | AC50 for growth inhibition (log10 M) [1] | AC50 for growth inhibition (log10 M) [2]
ClC1=CC\2=C(OC3=C(C=CC=C3)\N=C2N4CCNCC4)C=C1 [Amoxapine] | -4.63 | -4.78
CCOC(=O)[C@@H](N)Cc1ccc(-c2cc(O[C@H](c3ccc(Cl)cc3-n3ccc(C)n3)C(F)(F)F)nc(N)n2)cc1.O=C(O)CNC(=O)c1ccccc1 [Telotristat etiprate] | -4.78 | -5.03
CNC(=O)[C@H](Cc1ccccc1)NC(=O)[C@H](CC(C)C)[C@H](CSc1cccs1)C(=O)NO [Batimastat] | -4.68 | -4.93
O=C(NCC1CCCCN1)c1cc(OCC(F)(F)F)ccc1OCC(F)(F)F (configuration not stated) [Flecainide] | -5.03 | -5.03
Cc1c(Cn2c(C)nc3c(C(=O)O)cc(N4CCOCC4)cc32)cccc1C(F)(F)F | -7.48 | -5.88
Cn1cc(CNCC2CCN(c3ncc(C(=O)NO)cn3)CC2)c2ccccc21 [Quisinostat hydrochloride] | -6.73 | -7.23
F\C1=C\NC(=O)NC1=O [Fluorouracil] | -6.43 | -5.28
CC(C)(C)c1cc(C=C(C#N)C#N)cc(Br)c1O [AG-1024] | -5.03 | -5.43
C[C@H](NC(=O)c1sccc1OCc1ccc(Cl)cc1)c1ccccc1 | -4.98 | -4.73
C=C1C(=O)[C@@]23C(CC[C@@H]1[C@H]2O)[C@@]12CO[C@]3(O)[C@@H](O)[C@@H]1C(C)(C)CC[C@@H]2O (some centres not stated) [Oridonin] | -4.98 | -4.73
O=C(c1ccccc1)c1ccc2n1CCC2C(=O)O (configuration not stated) [Ketorolac] | -5.98 | -5.78
CCn1cc(-c2ccnc3[nH]c(-c4cccc(CN(C)C)c4)cc23)c(-c2ccc(NC(=O)N(C)C)cc2)n1 | -5.38 | -4.73
Cc1ccc([N+](=O)[O-])cc1[S+](=O)([O-])N(C)/N=C/c1cnc2ccc(Br)cn12 [PIK-75] | -8.03 | -7.98
C[C@H](NC(=O)/C(C#N)=C/c1cccc(Br)n1)c1ccccc1 [WP-1066] | -5.43 | -5.48
Nc1ccc(C(=O)Nc2cccc(-c3nc(N4CCOCC4)c4oc5ncccc5c4n3)c2)cn1 | -5.38 | -5.18
C/C=C(/C)C(=O)O[C@H]1C(C)=C2[C@H]([C@@H]1OC(=O)CCCCCCC)[C@@](C)(OC(C)=O)C[C@H](OC(=O)CCC)[C@@]1(O)[C@H]2OC(=O)[C@@]1(C)O [Thapsigargin] | -6.98 | -7.43
OC1=C(C=CC=C1)C2=CC=C(C=C2)C3=CSC4=C3C(=C(/C#N)C(=O)N4)/O | -5.83 | -4.78
CC[C@H](NC(=O)[C@H](C)NC)C(=O)N1C[C@@H](O)C[C@H]1Cc1c(-c2[nH]c3cc(F)ccc3c2C[C@@H]2C[C@H](O)CN2C(=O)[C@H](CC)NC(=O)[C@H](C)NC)[nH]c2cc(F)ccc12 [Birinapant] | -6.23 | -5.53
O=C(Nc1c[nH]nc1-c1nc2cc(CN3CCOCC3)ccc2[nH]1)NC1CC1 [AT-9283] | -6.18 | -5.38
Cc1c(N)nc([C@H](CC(N)=O)NC[C@@H](N)C(N)=O)nc1C(=O)N[C@H](C(=O)N[C@@H](C)[C@H](O)[C@@H](C)C(=O)N[C@@H](C(=O)NCCc1nc(-c2nc(C(=O)NCCC[S+](C)C)cs2)cs1)[C@@H](C)O)C(O[C@H]1O[C@H](CO)[C@H](O)[C@@H](O)[C@H]1O[C@H]1O[C@H](CO)[C@@H](O)[C@H](OC(N)=O)[C@@H]1O)c1c[nH]cn1 (some centres not stated) [Bleomycin sulfate] | -5.88 | -5.43
CC(C)NC[C@@H](C(=O)N1CCN(c2ncnc3c2[C@H](C)C[C@H]3O)CC1)c1ccc(Cl)cc1 [GDC-0068] | -6.48 | -5.13
O=C1c2c(O)ccc(O)c2C(=O)c2c(NCCNCCO)ccc(NCCNCCO)c21 [Mitoxantrone] | -7.13 | -5.88
ClC1=CC=C2N/C3=N/C(=O)CN3CC2=C1Cl [anagrelide] | -4.73 | -4.78
C[C@]\12CC[C@H](O)CC1=C/CC3C2CC[C@@]\4(C)C3C\C=C4[N]5C=NC6=C5C=CC=C6 (some centres not stated) [Galeterone] | -4.68 | -4.68
CC(C)C[C@H](NC(=O)[C@H](CCc1ccccc1)NC(=O)CN1CCOCC1)C(=O)N[C@@H](Cc1ccccc1)C(=O)N[C@@H](CC(C)C)C(=O)[C@@]1(C)CO1 [Carfilzomib] | -7.93 | -7.68
